This note sets out measurements from patent US5610174A, “Use of α1A -selective adrenoceptor agonists for the treatment of urinary incontinence” (priority 1995, dated 1997).

The target in one test is T1, human α2C adrenoceptor (Homo sapiens, UniProt P18825).
T1 construct: expressed in transfected cells; host or cells: LM(tk-)
T1 sequence (P18825 1-462): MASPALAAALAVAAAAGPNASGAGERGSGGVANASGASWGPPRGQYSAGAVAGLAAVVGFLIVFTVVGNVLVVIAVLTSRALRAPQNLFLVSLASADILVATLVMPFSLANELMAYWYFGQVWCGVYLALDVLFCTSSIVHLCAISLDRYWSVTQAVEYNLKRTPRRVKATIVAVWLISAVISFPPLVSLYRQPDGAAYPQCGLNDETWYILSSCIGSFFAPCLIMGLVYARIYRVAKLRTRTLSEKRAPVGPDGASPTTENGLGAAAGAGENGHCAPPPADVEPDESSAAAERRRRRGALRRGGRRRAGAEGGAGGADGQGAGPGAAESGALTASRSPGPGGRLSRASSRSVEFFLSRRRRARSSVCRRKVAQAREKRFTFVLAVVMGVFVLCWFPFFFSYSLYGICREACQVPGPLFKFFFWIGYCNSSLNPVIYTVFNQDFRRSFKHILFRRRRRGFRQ
The test can be described thus: Radioligand binding ([3H]rauwolscine) at cloned human α2C. On the procedure: (§1) To determine the affinity of compounds at the α2 receptors, LM(tk-) cell lines stably transfected with the genes encoding the α2A, α2B, and α2C receptors were used. Cell lysates were prepared as described above (see Radioligand Binding Assays), and suspended in 25 mM glycylglycine buffer (pH 7.6 at room temperature). Equilibrium competition binding assays were performed using [^3 H] rauwolscine (0.5 nM), and nonspecific binding was determined by incubation with 10 μM phentolamine. The bound radioligand was separated by filtration through GF/B filters using a cell harvester.

The target in test [1] is human dopamine D3 receptor. Kind of test: Radioligand binding at human dopamine D3. Here is the method: Other Dopamine receptors were prepared by known methods. (D1 : Dearry et al., Nature, 347, 72, (1990), deposited with the European Molecular Biological Laboratory (EMBL) Genbank as X55760; D3 : Sokoloff, P. et al., Nature, 347, 146 (1990), deposited with the European Molecular Biological Laboratory (EMBL) Genbank as X53944; D5 : Sunahara, R. K., et al., Nature, 350, 614 (1991), deposited with EMBL Genbank as X58454-HU HD 5DR).

Test [2] has as its target T2, rat atrial β-adrenoceptors (Rattus norvegicus, UniProt P18090).
T2 construct: Right atria were removed from rats and placed immediately into oxygenated Krebs solution; from tissue; host or cells: isolated, spontaneously beating rat right atrium
Kind of test: β-Adrenoceptor activity in isolated rat right atrium. The settings on record: vs isoprenaline, up to 100 μM; for Ki: read-out: pKi β (rat atrial β-adrenoceptors) (converted). On the procedure:
Determination of -Adrenoceptor Activity in the Isolated Rat Right Atrium
Right atria were removed from rats and placed immediately into oxygenated Krebs solution at 37° C. The Krebs solution was replaced three times at 5 min intervals and the tissues were tensioned three times to 0.5 g. In spontaneously beating atria, a control concentration effect curve to isoprenaline was generated. β-Adrenoceptor-mediated increase in atrial rate were measured as the response. […]. The antagonist effects of the test compounds were measured using the dose-ratio method, by comparing the shift in pEC50 for isoprenaline.

Test [3] deals with T3, human dopamine D2 receptor (Homo sapiens, UniProt P14416).
T3 construct: expressed in transfected cells; host or cells: COS-7 (plasmid pcEXV-D2, ATCC 75344)
T3 sequence (P14416 whole entry): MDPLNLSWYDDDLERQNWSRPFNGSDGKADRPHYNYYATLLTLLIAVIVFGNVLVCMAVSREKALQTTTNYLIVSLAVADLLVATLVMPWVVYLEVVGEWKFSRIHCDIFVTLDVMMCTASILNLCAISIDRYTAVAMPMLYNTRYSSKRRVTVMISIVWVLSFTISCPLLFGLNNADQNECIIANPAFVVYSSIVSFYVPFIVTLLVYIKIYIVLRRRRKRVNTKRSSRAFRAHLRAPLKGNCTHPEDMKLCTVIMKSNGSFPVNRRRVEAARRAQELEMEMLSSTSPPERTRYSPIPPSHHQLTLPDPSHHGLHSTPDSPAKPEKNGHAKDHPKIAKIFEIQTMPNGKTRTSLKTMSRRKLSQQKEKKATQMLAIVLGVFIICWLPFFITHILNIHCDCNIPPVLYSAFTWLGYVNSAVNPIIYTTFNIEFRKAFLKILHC
Kind of test: Radioligand binding at human dopamine D2. The settings on record: [3H]spiperone; for Ki: read-out: pKi D2 (converted). On the procedure:
Human Dopamine D2 Receptors
The affinity of compounds at the D2 receptor were determined using membrane preparations from COS-7 cells transfected with the gene encoding the human D2 receptor. The coding region for the human D2 receptor was obtained from a human striatum cDNA library, and cloned into the cloning site of PCDNA 1 eukariotic expression vector. The plasmid DNA for the D2 receptor is designated pcEXV-D2, and was deposited on Nov. 6, 1992 under ATCC Accession No. 75344. This construct was transfected into COS-7 cells by the DEAE-dextran method. Cells were harvested after 72 hours and lysed by sonication in 5mM Tris-HCl, 5 mM EDTA, pH 7.5. The cell lysates were centrifuged at 1000 rpm for 5 minutes at 4° C., and the supernatant was centrifuged at 30,000×g for 20 minutes at 4° C. The pellet was suspended in 50 mM Tris-HCl (pH 7.4) containing 1 mM EDTA, 5 mM KCl, 1.5 mM CaCl2, 4 mM MgCl2, and 0.1% ascorbic acid. The cell lysates were incubated with [3H]spiperone (2 nM), using 10 μM (+)Butaclamol to determine nonspecific binding.

The target of another test is T4, human α2B adrenoceptor (Homo sapiens, UniProt P18089).
T4 sequence (P18089 1-450): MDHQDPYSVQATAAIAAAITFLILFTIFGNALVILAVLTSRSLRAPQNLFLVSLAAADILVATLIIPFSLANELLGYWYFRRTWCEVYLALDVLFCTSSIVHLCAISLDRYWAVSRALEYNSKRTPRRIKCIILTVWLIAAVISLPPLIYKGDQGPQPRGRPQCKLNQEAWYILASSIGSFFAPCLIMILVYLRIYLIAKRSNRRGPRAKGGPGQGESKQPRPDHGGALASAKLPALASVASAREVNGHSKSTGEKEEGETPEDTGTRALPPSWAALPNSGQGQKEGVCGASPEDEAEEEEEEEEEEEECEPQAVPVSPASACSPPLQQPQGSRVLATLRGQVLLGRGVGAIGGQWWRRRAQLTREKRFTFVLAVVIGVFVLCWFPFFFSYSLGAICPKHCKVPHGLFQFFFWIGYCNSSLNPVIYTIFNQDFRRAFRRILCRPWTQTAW
Kind of test: Radioligand binding ([3H]rauwolscine) at cloned human α2B. On the set-up: expressed in transfected cells. Here is the method: as §1

Setting [4] is: Table 3, agonists, read-out: pKi α2C (converted).

Where two headings read alike, the source gives them in different places.

T2 sequence (P18090 whole entry): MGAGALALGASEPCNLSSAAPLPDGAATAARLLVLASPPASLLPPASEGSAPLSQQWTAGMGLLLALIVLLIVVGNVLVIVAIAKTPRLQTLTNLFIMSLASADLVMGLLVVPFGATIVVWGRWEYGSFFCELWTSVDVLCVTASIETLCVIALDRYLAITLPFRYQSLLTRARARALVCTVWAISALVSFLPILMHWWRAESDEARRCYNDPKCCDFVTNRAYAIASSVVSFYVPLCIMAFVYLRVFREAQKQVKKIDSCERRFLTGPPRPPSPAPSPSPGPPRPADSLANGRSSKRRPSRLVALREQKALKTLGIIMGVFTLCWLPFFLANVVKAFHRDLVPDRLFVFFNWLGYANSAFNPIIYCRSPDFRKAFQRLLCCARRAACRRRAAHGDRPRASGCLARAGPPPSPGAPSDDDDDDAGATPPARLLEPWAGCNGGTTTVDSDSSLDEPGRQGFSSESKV

As to `COc1ccc(SC)c2c1C[C@@H]1[C@@H](C2)OCCN1C` (relative stereo) [SDZ NVI-085, (±)-trans-4-Methyl-6-methoxy-9-thiomethoxy-3,4,4a, 5,10,10a-hexahydro-2H-naphtho[2,3-b][1,4]oxazine], the Ki at human α2C adrenoceptor (setting [4]) is 0.794 µM; in test [2], greater than 100 µM; in test [3], 3.16 µM; at human α2B adrenoceptor, 0.0631 µM. Also, the “pKi D3” value in test [1] was 6.0.

Consider `CS(=O)(=O)Nc1c(O)ccc2c1CCCC2C1=NCCN1` (racemic) [Compound A-61603, (±)-N-[5-(4,5-Dihydro-1H-imidazol-2-yl)-2-hydroxy-5,6,7,8-tetra-hydronaphthalen-1-yl]methanesulfonamide], for which the Ki on human α2C adrenoceptor (setting [4]) was 0.631 µM; in test [2], greater than 100 µM; in test [3] it was 10 µM; on human α2B adrenoceptor (Table 3, agonists, read-out: pKi α2B (converted)), 0.316 µM. Further, the “pKi D3” value in test [1] is on record as 5.8.

With `CN[C@@H](C)[C@H](O)c1ccccc1` [(-)-ephedrine], the Ki on human α2C adrenoceptor was 7.94 µM; on human α2B adrenoceptor, 2.51 µM.

Take `COc1ccc(OC)c(C(O)CN)c1` (racemic) [ST-1059, (±)-2-Amino-1-(2, 5 dimethoxyphenyl) ethanol]: the Ki on human α2C adrenoceptor is 3.98 µM; on human α2B adrenoceptor it was 1.58 µM.

Regarding `C[C@H](N)[C@H](O)c1ccccc1` [(-)-norephedrine], the Ki at human α2C adrenoceptor is 3.16 µM; at human α2B adrenoceptor, 0.251 µM.

In the case of `CNCCc1ccc(O)c(NS(C)(=O)=O)c1` [SK&F 102652], in test [1], the “pKi D3” value is listed as 6.7. Moreover, in test [2], the “pKi β (rat atrial β-adrenoceptors)” value was less than 4. In addition, the “pKi D2” value in test [3] turned out to be 6.7.
